Reference: the CheMixHub viscosity set
± gives the uncertainty stated by the source.

Test: xn = mol fraction of the nth substance listed

CCCCCCCCCCCCCCCCCCCCCCCC + CCCCCCCCCC
Conditions	viscosity [mPa·s]
313.2 K, 101.3 kPa, x2 = 0.8	1.48 ± 0.02

CCOC(=O)c1ccccc1 + CCCCCCCCCC
101 kPa
Conditions	viscosity [mPa·s]
298.15 K, x2 = 0.0396	1.837 ± 0.057
298.15 K, x2 = 0.1121	1.655 ± 0.052
298.15 K, x2 = 0.151	1.566 ± 0.049
298.15 K, x2 = 0.2285	1.42 ± 0.044
298.15 K, x2 = 0.2637	1.355 ± 0.042
298.15 K, x2 = 0.3109	1.289 ± 0.04
298.15 K, x2 = 0.4026	1.176 ± 0.037
298.15 K, x2 = 0.4449	1.136 ± 0.036
298.15 K, x2 = 0.4949	1.088 ± 0.034
298.15 K, x2 = 0.5326	1.056 ± 0.033
298.15 K, x2 = 0.5928	1.011 ± 0.032
298.15 K, x2 = 0.6401	0.982 ± 0.031
298.15 K, x2 = 0.6988	0.947 ± 0.03
298.15 K, x2 = 0.812	0.894 ± 0.028
298.15 K, x2 = 0.8703	0.875 ± 0.028
298.15 K, x2 = 0.9276	0.86 ± 0.027
308.15 K, x2 = 0.0574	1.521 ± 0.047
308.15 K, x2 = 0.0864	1.466 ± 0.046
308.15 K, x2 = 0.1337	1.383 ± 0.043
308.15 K, x2 = 0.1677	1.329 ± 0.042
308.15 K, x2 = 0.1997	1.279 ± 0.04
308.15 K, x2 = 0.2471	1.215 ± 0.038
308.15 K, x2 = 0.2846	1.165 ± 0.036
308.15 K, x2 = 0.3332	1.109 ± 0.035
308.15 K, x2 = 0.3766	1.065 ± 0.033
308.15 K, x2 = 0.4181	1.024 ± 0.032
308.15 K, x2 = 0.4647	0.985 ± 0.031
308.15 K, x2 = 0.5144	0.947 ± 0.03
308.15 K, x2 = 0.5655	0.913 ± 0.029
308.15 K, x2 = 0.6123	0.885 ± 0.028
308.15 K, x2 = 0.6663	0.854 ± 0.027
308.15 K, x2 = 0.7228	0.828 ± 0.026
308.15 K, x2 = 0.7857	0.803 ± 0.025
308.15 K, x2 = 0.8405	0.784 ± 0.025
308.15 K, x2 = 0.9073	0.764 ± 0.024
318.15 K, x2 = 0.0323	1.298 ± 0.041
318.15 K, x2 = 0.07	1.235 ± 0.039
318.15 K, x2 = 0.1012	1.188 ± 0.037
318.15 K, x2 = 0.1446	1.128 ± 0.035
318.15 K, x2 = 0.1842	1.078 ± 0.034
318.15 K, x2 = 0.2269	1.027 ± 0.032
318.15 K, x2 = 0.2679	0.984 ± 0.031
318.15 K, x2 = 0.3143	0.939 ± 0.029
318.15 K, x2 = 0.3561	0.903 ± 0.028
318.15 K, x2 = 0.4045	0.866 ± 0.027
318.15 K, x2 = 0.4499	0.835 ± 0.026
318.15 K, x2 = 0.5021	0.803 ± 0.025
318.15 K, x2 = 0.5496	0.777 ± 0.025
318.15 K, x2 = 0.6035	0.752 ± 0.024
318.15 K, x2 = 0.6545	0.73 ± 0.023
318.15 K, x2 = 0.7126	0.708 ± 0.022
318.15 K, x2 = 0.7674	0.69 ± 0.022
318.15 K, x2 = 0.8289	0.674 ± 0.021
318.15 K, x2 = 0.8862	0.661 ± 0.021

CC(C)CC1CCCCC1 + CCCCCCCCCCCC
viscosity [mPa·s], 102 kPa
Conditions	x1 = 0.1	x1 = 0.2011	x1 = 0.3007	x1 = 0.4005	x1 = 0.4977	x1 = 0.5997	x1 = 0.6989	x1 = 0.7996
293.15 K	1.46 ± 0.02	1.42 ± 0.02	1.39 ± 0.02	1.35 ± 0.02	1.32 ± 0.02	1.29 ± 0.02	1.25 ± 0.02	1.22 ± 0.02
303.15 K	1.23 ± 0.02	1.2 ± 0.02	1.17 ± 0.02	1.14 ± 0.02	1.12 ± 0.02	1.09 ± 0.02	1.07 ± 0.02	1.04 ± 0.02
313.15 K	1.05 ± 0.02	1.02 ± 0.02	1 ± 0.02	0.982 ± 0.021	0.965 ± 0.021	0.942 ± 0.021	0.922 ± 0.021	0.903 ± 0.021
323.15 K	0.902 ± 0.021	0.889 ± 0.021	0.874 ± 0.021	0.856 ± 0.021	0.842 ± 0.021	0.824 ± 0.021	0.809 ± 0.021	0.793 ± 0.021

CC1CCCCC1 + CCCCCCCCCCCC
viscosity [mPa·s], 101 kPa
Conditions	x1 = 0.1004	x1 = 0.2017	x1 = 0.2968	x1 = 0.406	x1 = 0.5059	x1 = 0.6011	x1 = 0.6993	x1 = 0.7989	x1 = 0.898
298.15 K	1.303 ± 0.022	–	–	1.084 ± 0.018	1.014 ± 0.017	0.948 ± 0.016	0.88 ± 0.015	0.811 ± 0.014	0.744 ± 0.013
303.15 K	1.186 ± 0.02	1.124 ± 0.019	1.067 ± 0.018	1.004 ± 0.017	0.94 ± 0.016	–	0.821 ± 0.014	0.756 ± 0.013	0.694 ± 0.012
308.15 K	1.096 ± 0.018	1.037 ± 0.018	0.981 ± 0.017	0.919 ± 0.016	0.862 ± 0.015	0.809 ± 0.014	0.755 ± 0.013	0.701 ± 0.012	0.647 ± 0.012

CCCCCCCCCl + CCCCCCCCCCCC
298 K, 101.3 kPa
Conditions	viscosity [mPa·s]
x2 = 0.1064	1.143 ± 0.03
x2 = 0.2068	1.151 ± 0.03
x2 = 0.308	1.177 ± 0.031
x2 = 0.4061	1.185 ± 0.031
x2 = 0.5066	1.218 ± 0.032
x2 = 0.6038	1.232 ± 0.032
x2 = 0.6927	1.262 ± 0.033
x2 = 0.7984	1.288 ± 0.034
x2 = 0.8945	1.317 ± 0.035

CCCCCl + CCCCCCCCCCCC
298 K, 101.3 kPa
Conditions	viscosity [mPa·s]
x2 = 0.1032	0.5072 ± 0.013
x2 = 0.202	0.5794 ± 0.015
x2 = 0.2999	0.6598 ± 0.017
x2 = 0.3986	0.7447 ± 0.02
x2 = 0.4981	0.8232 ± 0.022
x2 = 0.6017	0.9282 ± 0.024
x2 = 0.7015	1.034 ± 0.027
x2 = 0.7981	1.13 ± 0.03
x2 = 0.8948	1.22 ± 0.032

CCOC(=O)c1ccccc1 + CCCCCCCCCCCC
101 kPa
Conditions	viscosity [mPa·s]
298.15 K, x2 = 0.031	1.896 ± 0.059
298.15 K, x2 = 0.062	1.835 ± 0.057
298.15 K, x2 = 0.0893	1.785 ± 0.056
298.15 K, x2 = 0.1261	1.726 ± 0.054
298.15 K, x2 = 0.168	1.663 ± 0.052
298.15 K, x2 = 0.2378	1.58 ± 0.049
298.15 K, x2 = 0.2782	1.532 ± 0.048
298.15 K, x2 = 0.3577	1.462 ± 0.046
298.15 K, x2 = 0.4064	1.427 ± 0.045
298.15 K, x2 = 0.4557	1.396 ± 0.044
298.15 K, x2 = 0.5044	1.371 ± 0.043
298.15 K, x2 = 0.5519	1.351 ± 0.043
298.15 K, x2 = 0.6714	1.331 ± 0.043
298.15 K, x2 = 0.7194	1.324 ± 0.042
298.15 K, x2 = 0.7886	1.32 ± 0.043
298.15 K, x2 = 0.8626	1.325 ± 0.043
298.15 K, x2 = 0.9296	1.335 ± 0.043
308.15 K, x2 = 0.0462	1.569 ± 0.049
308.15 K, x2 = 0.0741	1.532 ± 0.048
308.15 K, x2 = 0.1171	1.477 ± 0.046
308.15 K, x2 = 0.1439	1.445 ± 0.045
308.15 K, x2 = 0.1806	1.405 ± 0.044
308.15 K, x2 = 0.2481	1.342 ± 0.042
308.15 K, x2 = 0.2629	1.329 ± 0.042
308.15 K, x2 = 0.295	1.303 ± 0.041
308.15 K, x2 = 0.3388	1.272 ± 0.04
308.15 K, x2 = 0.3769	1.249 ± 0.039
308.15 K, x2 = 0.4331	1.218 ± 0.038
308.15 K, x2 = 0.4765	1.198 ± 0.038
308.15 K, x2 = 0.527	1.178 ± 0.037
308.15 K, x2 = 0.5759	1.163 ± 0.037
308.15 K, x2 = 0.6373	1.149 ± 0.037
308.15 K, x2 = 0.7278	1.138 ± 0.037
308.15 K, x2 = 0.7527	1.136 ± 0.037
308.15 K, x2 = 0.8209	1.134 ± 0.037
308.15 K, x2 = 0.9374	1.142 ± 0.037
318.15 K, x2 = 0.0278	1.314 ± 0.041
318.15 K, x2 = 0.0571	1.276 ± 0.04
318.15 K, x2 = 0.0872	1.241 ± 0.039
318.15 K, x2 = 0.1222	1.203 ± 0.038
318.15 K, x2 = 0.155	1.173 ± 0.037
318.15 K, x2 = 0.1942	1.14 ± 0.036
318.15 K, x2 = 0.2296	1.113 ± 0.035
318.15 K, x2 = 0.2726	1.084 ± 0.034
318.15 K, x2 = 0.3115	1.061 ± 0.033
318.15 K, x2 = 0.3575	1.037 ± 0.033
318.15 K, x2 = 0.3995	1.019 ± 0.032
318.15 K, x2 = 0.4522	0.999 ± 0.032
318.15 K, x2 = 0.4995	0.984 ± 0.031
318.15 K, x2 = 0.5564	0.97 ± 0.031
318.15 K, x2 = 0.6085	0.961 ± 0.031
318.15 K, x2 = 0.6725	0.954 ± 0.031
318.15 K, x2 = 0.7324	0.95 ± 0.031
318.15 K, x2 = 0.7851	0.948 ± 0.031
318.15 K, x2 = 0.868	0.953 ± 0.031
